System: transgenic Arabidopsis thaliana T1 plants
Assay: Detection of the herbicide tolerance of the transgenic Arabidopsis thaliana plants
Assay type: in vivo
Settings: for The grade of pesticide damage/plant: 0 / The grade of pesticide damage/plant: 1 / The grade of pesticide damage/plant: 2 / The grade of pesticide damage/plant: 3: 7 DAT
From the text: The transformed Arabidopsis thaliana T1 plants were initially selected using glufosinate herbicide. The Arabidopsis thaliana T1 plants (PPOA-01) into which the PPOA-01 nucleotide sequence was introduced, the Arabidopsis thaliana T1 plants (PPOB-01) into which the PPOB-01 nucleotide sequence was introduced, the Arabidopsis thaliana T1 plants (PPOC-01) into which the PPOC-01 nucleotide sequence was introduced, the Arabidopsis thaliana T1 plants (PPOD-01) into which the PPOD-01 nucleotide sequence was introduced, the Arabidopsis thaliana T1 plants (PPOE-01) into which the PPOE-01 nucleotide sequence was introduced, the Arabidopsis thaliana T1 plants (PPOF-01) into which the PPOF-01 nucleotide sequence was introduced, the Arabidopsis thaliana T1 plants (PPO-AP-01) into which the PPO-AP-01 nucleotide sequence was introduced, and the Arabidopsis thaliana T1 plants (control vector) into which the control vector was introduced, the wild-type Arabidopsis thaliana plants (CK) (with 24 plants being included in each genotype) (18 days after sowing) were sprayed with saflufenacil at three concentrations (25 g ai/ha (one-fold field concentration, 1×), 100 g ai/ha (four-fold field concentration, 4×), and 0 g ai/ha (water, 0×)), oxyfluorfen at three concentrations (180 g ai/ha (one-fold field concentration, 1×), 720 g ai/ha (four-fold field concentration, 4×), and 0 g ai/ha (water, 0×)), and flumioxazin at three concentrations (60 g ai/ha (one-fold field concentration, 1×), 240 g ai/ha (four-fold field concentration, 4×), and 0 g ai/ha (water, 0×) to determine the tolerance of Arabidopsis thaliana to the herbicides. After 7 days of spraying (7 DAT), the damage level of each plant caused by the herbicide was evaluated according to the average of the damage levels (%) of plants (the average of the damage levels (%) of plants=the injured leaf area/the total leaf area×100%), i.e., the grade of pesticide damage: grade 0 means that the growth status of plants is essentially consistent with those sprayed with the blank solvent (water); grade 1 means that the average of the damage levels of plants is less than 10%; grade 2 means that the average of the damage levels of plants is greater than 10%; and grade 3 means that the average of the damage levels of plants is 100%. The plants having a growth status falling within grades 0 and 1 are classified as highly resistant plants; those having a growth status falling within grade 2 are classified as poorly resistant plants; and those having a growth status falling within grade 3 are classified as non-resistant plants.

[1] = genotype Control vector, 25 g ai/ha
[2] = genotype Control vector, 100 g ai/ha
[3] = genotype PPO-AP-01, 100 g ai/ha

## CC(C)N(C)S(=O)(=O)NC(=O)c1cc(-n2c(=O)cc(C(F)(F)F)n(C)c2=O)c(F)cc1Cl [saflufenacil, N′-[2-chloro-4-fluoro-5-(3-methyl-2,6-dioxo-4-(trifluoromethyl)-3,6-dihydro-1 (2H)-pyrimidine)benzoyl]-N-isopropyl-N-methylsulfamide]
Arabidopsis thaliana
  effective dose distinguishing sensitive plants from plants having an average level of resistance: 25 g ai/ha
Genotype CK, 25 g ai/ha
  The grade of pesticide damage/plant: 0: 0 plant
  The grade of pesticide damage/plant: 1: 0 plant
  The grade of pesticide damage/plant: 2: 0 plant
  The grade of pesticide damage/plant: 3: 24 plant
Genotype CK, 100 g ai/ha
  The grade of pesticide damage/plant: 0: 0 plant
  The grade of pesticide damage/plant: 1: 0 plant
  The grade of pesticide damage/plant: 2: 0 plant
  The grade of pesticide damage/plant: 3: 24 plant
[1]
  The grade of pesticide damage/plant: 0: 0 plant
  The grade of pesticide damage/plant: 1: 0 plant
  The grade of pesticide damage/plant: 2: 0 plant
  The grade of pesticide damage/plant: 3: 24 plant
[2]
  The grade of pesticide damage/plant: 0: 0 plant
  The grade of pesticide damage/plant: 1: 0 plant
  The grade of pesticide damage/plant: 2: 0 plant
  The grade of pesticide damage/plant: 3: 24 plant
Genotype PPO-AP-01, 25 g ai/ha
  The grade of pesticide damage/plant: 0: 0 plant
  The grade of pesticide damage/plant: 1: 0 plant
  The grade of pesticide damage/plant: 2: 0 plant
  The grade of pesticide damage/plant: 3: 24 plant
[3]
  The grade of pesticide damage/plant: 0: 0 plant
  The grade of pesticide damage/plant: 1: 0 plant
  The grade of pesticide damage/plant: 2: 0 plant
  The grade of pesticide damage/plant: 3: 24 plant
Genotype PPO-AP-01, at different concentrations
  tolerance to the herbicide (in words): no tolerance
Genotype PPOA-01, 25 g ai/ha
  The grade of pesticide damage/plant: 0: 24 plant
  The grade of pesticide damage/plant: 1: 0 plant
  The grade of pesticide damage/plant: 2: 0 plant
  The grade of pesticide damage/plant: 3: 0 plant
Genotype PPOA-01, 100 g ai/ha
  The grade of pesticide damage/plant: 0: 0 plant
  The grade of pesticide damage/plant: 1: 24 plant
  The grade of pesticide damage/plant: 2: 0 plant
  The grade of pesticide damage/plant: 3: 0 plant
Genotype PPOB-01, 25 g ai/ha
  The grade of pesticide damage/plant: 0: 24 plant
  The grade of pesticide damage/plant: 1: 0 plant
  The grade of pesticide damage/plant: 2: 0 plant
  The grade of pesticide damage/plant: 3: 0 plant
Genotype PPOB-01, 100 g ai/ha
  The grade of pesticide damage/plant: 0: 0 plant
  The grade of pesticide damage/plant: 1: 24 plant
  The grade of pesticide damage/plant: 2: 0 plant
  The grade of pesticide damage/plant: 3: 0 plant
Genotype PPOC-01, 25 g ai/ha
  The grade of pesticide damage/plant: 0: 24 plant
  The grade of pesticide damage/plant: 1: 0 plant
  The grade of pesticide damage/plant: 2: 0 plant
  The grade of pesticide damage/plant: 3: 0 plant
Genotype PPOC-01, 100 g ai/ha
  The grade of pesticide damage/plant: 0: 0 plant
  The grade of pesticide damage/plant: 1: 24 plant
  The grade of pesticide damage/plant: 2: 0 plant
  The grade of pesticide damage/plant: 3: 0 plant
Genotype PPOD-01, 25 g ai/ha
  The grade of pesticide damage/plant: 0: 24 plant
  The grade of pesticide damage/plant: 1: 0 plant
  The grade of pesticide damage/plant: 2: 0 plant
  The grade of pesticide damage/plant: 3: 0 plant
Genotype PPOD-01, 100 g ai/ha
  The grade of pesticide damage/plant: 0: 0 plant
  The grade of pesticide damage/plant: 1: 24 plant
  The grade of pesticide damage/plant: 2: 0 plant
  The grade of pesticide damage/plant: 3: 0 plant
Genotype PPOE-01, 25 g ai/ha
  The grade of pesticide damage/plant: 0: 24 plant
  The grade of pesticide damage/plant: 1: 0 plant
  The grade of pesticide damage/plant: 2: 0 plant
  The grade of pesticide damage/plant: 3: 0 plant
Genotype PPOE-01, 100 g ai/ha
  The grade of pesticide damage/plant: 0: 0 plant
  The grade of pesticide damage/plant: 1: 24 plant
  The grade of pesticide damage/plant: 2: 0 plant
  The grade of pesticide damage/plant: 3: 0 plant
Genotype PPOF-01, 25 g ai/ha
  The grade of pesticide damage/plant: 0: 24 plant
  The grade of pesticide damage/plant: 1: 0 plant
  The grade of pesticide damage/plant: 2: 0 plant
  The grade of pesticide damage/plant: 3: 0 plant
Genotype PPOF-01, 100 g ai/ha
  The grade of pesticide damage/plant: 0: 0 plant
  The grade of pesticide damage/plant: 1: 24 plant
  The grade of pesticide damage/plant: 2: 0 plant
  The grade of pesticide damage/plant: 3: 0 plant
Genotypes PPOA-01 to PPOF-01, at different concentrations, compared with the control vector and CK
  tolerance to the herbicide (in words): high-resistant tolerance

From patent US20250275540A1, “USE OF PROTOPORPHYRINOGEN OXIDASE” (BEIJING DABEINONG BIOTECHNOLOGY CO., LTD., priority 2022, published 2025)
